Test results from patent US9995734B2, “Human T cell line assay for evaluating the immunologic identity of glatiramer acetate preparations” (Mylan Inc., priority 2013, dated 2018).

Key:
[1] = test system: Donor 3 GMA Responsive T Cells; experiment: Cytokine multiplex assay, Donor 3 GMA responsive T cells; format: cell-based, human; conditions: culture medium
Experimental: (§1) The concentration of multiple cytokines was measured simultaneously using FlowCytoMix™ kits (eBioscience, San Diego Calif.). These are fluorescent bead based assays consisting of beads conjugated to anti cytokine antibodies. Beads specific for each cytokine are distinguished by size and fluorescence at 670 run. Cytokine bound to each bead is detected using a phycoerythrin conjugated antibody so that the fluorescence at 585 nm reflects the concentration of cytokine in the sample. Two kits were utilized which measured different cytokine panels. The TH1/TH2 kit measures IFN-γ, IL-1β, IL-2, IL-4, IL-5, IL-6, IL-8, IL-10, IL-12p70, TNF-α (TNF) and TNF-β (LT). The TH1/TH2/TH9/TH17/TH22 kit measures […], IL-1β, IL-2, IL-4, IL-5, IL-6, IL-9, IL-10, IL-12p70, IL-13, IL-17, IL-22, and TNF-α (TNF). Both kits were used following the manufacturer's instructions.

[2] = test system: Donor 4 COP Responsive T-Cell Lines; experiment: Multiplex bead cytokine assay (FlowCytomix), Donor 4 COP responsive T-cell lines; format: cell-based, human; design: IFN-γ / 1L-9 / IL-22 / IL-13: unit not given here
Experimental: as §1
On Day 23 the positive wells (cell lines listed in Table 26) were transferred to a 24-well plate and restimulated with 10 μg/mL COP in the presence of mitomycin-treated autologous PBMC. IL-2 was added at Day 24. On Day 31 (after four rounds of restimulation) ten lines were restimulated with 10 μg/mL COP to confirm antigen reactivity by a cytokine secretion assay. T-cells were added at 2×10^4 cells/well in 96-well plates in X-VIVO 15 medium. Each line was separately stimulated with 10 μg/mL GMA, and 10 μg/mL COP in the presence of (2×10^5 cells/well, i.e., 1×10^6 cells/mL) mitomycin-treated autologous PBMC. Culture medium was collected after 20-24 hours for cytokine assay (FlowCytomix multiplex bead assay). The supernatants were tested in triplicate for IL-12 p70, IFN-γ, IL-2, IL-10, IL-6, IL-4, IL-5, TNF-α, and TNF-β secretion. […] Secretion of IL-2, 11-10, and IL-4 varied among the lines. All samples also secreted IL-8 (data not shown).
Culture medium from each of two Donor 4 cell lines was assayed for an extended panel of cytokines, showing production of IL-13 and IL-22 (Table 32).

[3] = T-cell line 1H9, 10 μg/mL, Day 31, medium after 20-24 hours
[4] = T-cell line 1H11, 10 μg/mL, Day 31, medium after 20-24 hours
[5] = T-cell line 205-1B4, extended cytokine multiplex assay
[6] = T-cell line 205-1B7, 10 μg/mL, Day 31, medium after 20-24 hours
[7] = T-cell line 205-1C4, 10 μg/mL, Day 31, medium after 20-24 hours
[8] = T-cell line 205-1F4, extended cytokine multiplex assay
[9] = T-cell line 205-1F5, 10 μg/mL, Day 31, medium after 20-24 hours
[10] = T-cell line 205-1G3, 10 μg/mL, Day 31, medium after 20-24 hours
[11] = T-cell line 205-1H5, 10 μg/mL, Day 31, medium after 20-24 hours
[12] = T-cell line 205-1H7, 10 μg/mL, Day 31, medium after 20-24 hours

## glatiramer acetate [GMA]
[1]; T-cell line 165-B5G
  IFN-γ: 201 pg/mL
  IL-4: 47 pg/mL
  IL-5: 399 pg/mL
  IL-13: 2930 pg/mL
  IL-22: 248 pg/mL
[1]; T-cell line 165-D8G
  IFN-γ: 121 pg/mL
  IL-4: 12 pg/mL
  IL-5: 309 pg/mL
  IL-13: 3326 pg/mL
  IL-22: 405 pg/mL
[1]; T-cell line 165-E9G
  IFN-γ: 837 pg/mL
  IL-4: 6 pg/mL
  IL-5: 236 pg/mL
  IL-13: 1499 pg/mL
  IL-22: 245 pg/mL
[1]; T-cell line 165-F8G
  IFN-γ: 889 pg/mL
  IL-4: 5 pg/mL
  IL-5: 370 pg/mL
  IL-13: 1193 pg/mL
  IL-22: 197 pg/mL
[1]; T-cell line 165-F10G
  IFN-γ: 1108 pg/mL
  IL-4: 114 pg/mL
  IL-5: 2589 pg/mL
  IL-13: 10897 pg/mL
  IL-22: 680 pg/mL
[1]; T-cell line 165-H11G
  IFN-γ: 724 pg/mL
  IL-4: 7 pg/mL
  IL-5: 320 pg/mL
  IL-13: 1058 pg/mL
  IL-22: 201 pg/mL
[2]; [3]
  IFN-y: 182.77 pg/mL
  IL-2: <=0 pg/mL
  IL-4: <=0 pg/mL
  IL-5: <=0 pg/mL
  IL-6: 74.92 pg/mL
  IL-10: <=0 pg/mL
  IL-12 p70: <=0 pg/mL
  TNF-α: 161.89 pg/mL
  TNF-β: <=0 pg/mL
[2]; [4]
  IFN-y: 929 pg/mL
  IL-2: 22.78 pg/mL
  IL-4: <=0 pg/mL
  IL-5: 3349.8 pg/mL
  IL-6: 28.28 pg/mL
  IL-10: 145 pg/mL
  IL-12 p70: 2.24 pg/mL
  TNF-α: 609.49 pg/mL
  TNF-β: <=0 pg/mL
[2]; [5]
  1L-9: 21
  IFN-γ: 713
  IL-2: 0
  IL-4: 117
  IL-5: 3104
  IL-6: 109
  IL-10: 25
  IL-13: 13895
  IL-22: 478
  TNF-α: 868
[2]; [6]
  IFN-y: 828.5 pg/mL
  IL-2: 10.89 pg/mL
  IL-4: 187.29 pg/mL
  IL-5: 6854.13 pg/mL
  IL-6: 187.85 pg/mL
  IL-10: 182.81 pg/mL
  IL-12 p70: 44.57 pg/mL
  TNF-α: 1305.37 pg/mL
  TNF-β: 217.5 pg/mL
[2]; [7]
  IFN-y: 1046.32 pg/mL
  IL-2: 312.13 pg/mL
  IL-4: 124.7 pg/mL
  IL-5: 5434.06 pg/mL
  IL-6: 149.35 pg/mL
  IL-10: 45.24 pg/mL
  IL-12 p70: 46.89 pg/mL
  TNF-α: 1059.01 pg/mL
  TNF-β: 81.04 pg/mL
[2]; [8]
  1L-9: 7
  IFN-γ: 1207
  IL-2: 76
  IL-4: 7
  IL-5: 1459
  IL-6: 73
  IL-10: 16
  IL-13: 4506
  IL-22: 186
  TNF-α: 323
[2]; [9]
  IFN-y: 479.26 pg/mL
  IL-2: 197.46 pg/mL
  IL-4: 328.72 pg/mL
  IL-5: 13930.97 pg/mL
  IL-6: 314.54 pg/mL
  IL-10: 231.63 pg/mL
  IL-12 p70: 67.53 pg/mL
  TNF-α: 1084.01 pg/mL
  TNF-β: 260.35 pg/mL
[2]; [10]
  IFN-y: 193.91 pg/mL
  IL-2: 5.27 pg/mL
  IL-4: <=0 pg/mL
  IL-5: 121.17 pg/mL
  IL-6: 16.67 pg/mL
  IL-10: <=0 pg/mL
  IL-12 p70: 2.37 pg/mL
  TNF-α: 68.79 pg/mL
  TNF-β: 17.66 pg/mL
[2]; [11]
  IFN-y: 902.95 pg/mL
  IL-2: <=0 pg/mL
  IL-4: 46.82 pg/mL
  IL-5: 2534.09 pg/mL
  IL-6: 52.4 pg/mL
  IL-10: <=0 pg/mL
  IL-12 p70: 8.78 pg/mL
  TNF-α: 910.83 pg/mL
  TNF-β: 79.8 pg/mL
[2]; [12]
  IFN-y: 1275.97 pg/mL
  IL-2: 176.52 pg/mL
  IL-4: 58.41 pg/mL
  IL-5: 96.95 pg/mL
  IL-6: 64.82 pg/mL
  IL-10: <=0 pg/mL
  IL-12 p70: 13.42 pg/mL
  TNF-α: 552.89 pg/mL
  TNF-β: 34.81 pg/mL
[2]; most tested Donor 4 cell lines, Day 31, 10 μg/mL, 20-24 hours
  cytokine secretion: secreted IFN-γ, IL-5, and TNF-α
